Assay results from patent publication US11623924B2, “Modulators of alpha-1 antitrypsin” (Vertex Pharmaceuticals Incorporated, priority 2018, dated 2023).
pEC50: −log10 of the molar value.

Molecular target: T1, NL20 human bronchial epithelial cells expressing human Z-AAT (Homo sapiens, UniProt P01009, E366K)
T1 construct: expressed in transfected cells; host or cells: NL20 human bronchial epithelial cells (NL20-SI line, doxycycline added)
Test: AAT Function Assay (MSD Assay NL20-SI Cell Line)
Type: cell-based
Conditions: functionally active AAT (AAT-hNE complex) in supernatant of NL20 cells expressing human Z-AAT; read-out: NL20 Func. (EC50)
Protocol: A. AAT Function Assay (MSD Assay NL20-SI Cell Line)
Alpha-1 antitrypsin (AAT) is a SERPIN (serine protease inhibitor) that inactivates enzymes by binding to them covalently. This assay measured the amount of functionally active AAT in a sample in the presence of the disclosed compounds 1-215 by determining the ability of AAT to form an irreversible complex with human neutrophil Elastase (hNE). In practice, the sample (cell supernatant, blood sample, or other) was incubated with excess hNE to allow AAT-Elastase complex to be formed with all functional AAT in the sample. This complex was then captured to a microplate coated with an anti-AAT antibody. The complex captured to the plate was detected with a labeled anti-Elastase antibody and quantitated using a set of AAT standards spanning the concentration range present in the sample. Meso Scale Discovery (MSD) plate reader, Sulfo-tag labeling, and microplates were used to provide high sensitivity and wide dynamic range.
• 1. Harvest NL20 human bronchial epithelial cells expressing human Z-AAT in OptiMEM™ containing Pen/Strep (P/S) • 2. Seed at 16,000 cells/well in 30 μL (384 well plate) • 3. Centrifuge plates briefly up to speed (1200 rpm) and place into 37° C. incubator overnight Day 2: Compound Addition and Coating Plates with Capture Antibody Compound Addition: • 1. Dispense 40 μL of OptiMEM™ (P/S) with doxycycline (1:1000 stock=0.1 μM final) to each well of the compound plate using a multidrop Combi in hood • 2. Remove cell plate from incubator, flip/blot and take immediately to Bravo to transfer compounds • 3. Return plates to incubator overnight Coat MSD Plates • 1. Dilute capture antibody (Polyclonal Goat anti-AAT) to 5 μg/mL (1:200) in PBS (no BSA). • 2. Dispense 25 μL of diluted capture antibody into all wells of MSD 384-well High Bind plate using the Multidrop equipped with a standard cassette. • 3. Incubate overnight at 4° C. Prepare Blocker A (BSA) Solutions • 1. Prepare solution of 5% MSD Blocker A (BSA) following the manufacturer's instructions. • 2. Further dilute the 5% MSD Blocker A in PBS to 1% (Blocker A) as needed. Day 3: Run MSD Assay
Block Plates • 1. Wash plate 1× with 50 μL Wash buffer (PBS+0.5% Tween 20), and adds 35 μL 5% Block A buffer to block non-specific binding on washer dispenser • 2. Rotate plates on shaker for 1 hour at 600 rpm
Prepare M-AAT Standards • 1. Dilute M-AAT stock to 1.6 μg/mL in 1% BSA Blocker A (Stock in −70° C.); then prepare 12×1:2 serial dilutions in 1% Blocker A • 2. The top starting final concentration on MSD plate is 320 ng/mL. These dilutions correspond to a final concentration of 320, 160, 80, 40, 20, 10, 5, 2.5, 1.25, 0.625, 0.312, 0.156 ng/mL.
Dilution Plate • 1. Add 80 μL of 1% Assay buffer to all wells except columns 1/24 (standards) with Multidrop Combi • 2. Add diluted standards to columns 1 and 24 • 3. Centrifuge dilution plates 1200 rpm briefly
Cell Plate • 1. Aspirate columns which will have the standards from the cell plates in the hood using 16-pin aspirator
Prepare Human Neutrophil Elastase (hNE) • 1. Prepare 1 μg/mL Human Neutrophil Elastase by diluting in 1% Blocker A. • a. Small 100 μg vial—add 1 mL PBS (100 μg/mL) • i. This can then be diluted 1:100 in 1% Assay Buffer for a final 1 μg/mL concentration
MSD—Add hNE (20 μL/well) • 1. After the MSD plate has blocked for at least 1 hour, wash plate 1× with 50 μL Wash buffer (PBS+0.5% Tween 20) and then add 20 μL hNE to each well
Bravo—Cell Plate—Dilution Plate—MSD Plate
Using the Bravo aspirate 10 μL from the cell plate, transfer to the dilution plate (9-fold dilution)
• 1. Mix 25 μL 3×, then aspirate 5 μL, transfer to MSD plate (5-fold dilution) • 2. Mix 10 μL 3×. Total dilution is 45 fold. • 3. Shake plates at 600 rpm for 1.5 hours
Add Functional detection hNE antibody • 1. Wash plate 1× with wash buffer • 2. […]

T1 sequence (P01009 25-418 E366K): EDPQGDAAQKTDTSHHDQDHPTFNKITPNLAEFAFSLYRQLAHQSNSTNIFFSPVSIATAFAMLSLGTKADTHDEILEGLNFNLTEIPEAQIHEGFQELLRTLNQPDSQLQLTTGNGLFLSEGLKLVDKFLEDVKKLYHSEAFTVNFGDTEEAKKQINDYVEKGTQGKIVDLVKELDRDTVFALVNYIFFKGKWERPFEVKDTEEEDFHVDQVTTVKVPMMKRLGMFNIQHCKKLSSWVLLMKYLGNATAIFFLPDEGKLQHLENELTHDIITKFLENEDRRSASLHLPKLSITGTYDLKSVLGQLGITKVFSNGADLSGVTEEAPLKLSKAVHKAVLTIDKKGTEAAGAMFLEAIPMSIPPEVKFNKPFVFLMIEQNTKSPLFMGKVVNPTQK

| pEC50 | Compound |
| --- | --- |
| < 5.52 | Cc1cc(-n2c(C3CCOCC3)c([C@H]3C[C@@H](C(=O)O)C3)c3cc4[nH]ncc4cc32)ccc1F [Compound 99] |
| > 5.94 | Cc1cc(-n2c(C(C)C)c(C3CC(C)(C(=O)O)C3)c3cc4[nH]nc(C)c4cc32)ccc1F (mixture of isomers) [Compound 55, 3-[5-(4-fluoro-3-methyl-phenyl)-6-isopropyl-3-methyl-1H-pyrrolo[2,3-f]indazol-7-yl]-1-methyl-cyclobutanecarboxylic Acid] |
| < 5.52 | Cc1cc(-n2c(C3CCOCC3)c(CC3CC3C(=O)O)c3cc4[nH]ncc4cc32)ccc1F (single isomer, unassigned) [Compound 101] |
| > 5.94 | Cc1cc(-n2c(C(C)C)c(C3CC(CC(=O)O)C3)c3cc4[nH]ncc4cc32)ccc1F (mixture of isomers) [Compound 22] |
| 5.52 to 5.94 | Fc1ccc(-n2c(C3CCOCC3)c(Cl)c3cc4[nH]ncc4cc32)cc1 [Compound 63, 7-chloro-5-(4-fluorophenyl)-6-tetrahydropyran-4-yl-1H-pyrrolo[2,3-f]indazole] |
| < 5.52 | O=C(O)CCc1c(C2CCOCC2)n(-c2ccc(F)c(Cl)c2)c2cc3cn[nH]c3cc12 [Compound 82] |
| < 5.52 | Cc1cc(-n2c(C(C)C)c(C(=O)NC3COC3)c3cc4[nH]ncc4cc32)ccc1F [Compound 7, 5-(4-fluoro-3-methyl-phenyl)-6-isopropyl-N-(oxetan-3-yl)-1H-pyrrolo[2,3-f]indazole-7-carboxamide] |
| 5.52 to 5.94 | Cc1cc(-n2c(C3CCOCC3)c(C3CC(CC(=O)O)C3)c3cc4[nH]ncc4cc32)ccc1F (mixture of isomers) [Compound 93] |
| 5.52 to 5.94 | Cc1cc(-n2c(C(C)C)c(I)c3cc4[nH]ncc4cc32)ccc1F [Compound 1, 5-(4-fluoro-3-methyl-phenyl)-7-iodo-6-isopropyl-1H-pyrrolo[2,3-f]indazole] |
| 5.52 to 5.94 | CC(C)c1c(-c2ccc(Cl)cc2)c2cc3cn[nH]c3cc2n1CCC(=O)O [Compound 206, 3-[5-(4-chlorophenyl)-6-isopropyl-1H-pyrrolo[3,2-f]indazol-7-yl]propanoic Acid] |
| 5.52 to 5.94 | [H][C@]1(C(=O)O)C[C@]2(C1)C[C@@]([H])(c1c(C3CCOCC3)n(-c3ccc(F)cc3)c3cc4cn[nH]c4cc31)C2 (single isomer, unassigned) [Compound 109] |
| 5.52 to 5.94 | O=C(O)[C@H]1C[C@@H](Cc2c(C3CCOCC3)n(-c3ccc(F)cc3)c3cc4cn[nH]c4cc23)C1 [Compound 117] |
| > 5.94 | Cc1cc(-n2c(C(C)C)c(C(C)CC(=O)O)c3cc4[nH]ncc4cc32)ccc1F (single isomer, unassigned) [Compound 27] |
| > 5.94 | Cc1cc(-n2c(C(C)C)c(CCC(=O)O)c3c(F)c4[nH]ncc4cc32)ccc1F [Compound 52, 3-[8-fluoro-5-(4-fluoro-3-methyl-phenyl)-6-isopropyl-1H-pyrrolo[2,3-f]indazol-7-yl]propanoic Acid] |
| 5.52 to 5.94 | O=C(O)[C@H]1C[C@H](c2c(C3CCOCC3)n(-c3ccc(F)c(F)c3)c3cc4cn[nH]c4cc32)C1 [Compound 66] |
| 5.52 to 5.94 | Cc1cc(-n2c(C3CCOCC3)c(CC3(C(=O)O)CC3)c3cc4[nH]ncc4cc32)ccc1F [Compound 87] |
| < 5.52 | O=C(O)[C@H]1C[C@H](Cc2c(C3CCOCC3)n(-c3ccc(F)c(F)c3)c3cc4cn[nH]c4cc23)C1 (single isomer, unassigned) [Compound 71] |
| < 5.52 | Cc1cc(-n2c(C(C)C)c(S(C)(=O)=O)c3cc4[nH]nnc4cc32)ccc1F [Compound 199, 5-(4-fluoro-3-methyl-phenyl)-6-isopropyl-7-methylsulfonyl-1H-pyrrolo[2,3-f]benzotriazole] |
| > 5.94 | Cc1cc(-n2c(C(C)C)c(C(C)CC(=O)O)c3cc4[nH]ncc4cc32)ccc1F (single isomer, unassigned) [Compound 28] |
